Experimental data taken from US9474790B2, “Stable, protracted GLP-1/glucagon receptor co-agonists for medical use” (Novo Nordisk A/S, priority 2013, dated 2016).
Numbered stars: 1 amine (or outer) side, 2 acyl side, 3 side chain; on linkers, the order of the positions; unused ones are H or OH. Square brackets hold non-standard residues; d marks the D form. Side chains are listed from the residue outwards. Peptide text beside a SMILES is read from it. * marks the point of attachment. C18 diacid = O=C(O)CCCCCCCCCCCCCCCCC(=O)*; γGlu = O=C(O)[C@H](CCC(=O)[*:2])N[*:1]; AEEA = NCCOCCOCC(=O)O; Aib = CC(C)(N)C(=O)O

Test system: DIO mice
Assay: In vivo test in diet-induced obese (DIO) mice: body weight and blood glucose
Set-up: species or system c57bl/6J mice
Conditions: for Percent BW of baseline at week 5 (mean ± SD): s.c. once daily 5 weeks, co-agonists 5 then 10 nmol/kg, liraglutide 100 nmol/kg
Description: The purpose of this experiment was to investigate effect of the glucagon-GLP-1R co-agonists from Example 8 and Example 12 on body weight and blood glucose in vivo in DIO mice. Liraglutide (a human GLP-1 analogue marketed by Novo Nordisk NS under the brand name VictozaTM) was included for comparison. Male […]/6J mice obtained from Jackson Lab (USA) were fed a high fat diet (Research Diets D12451, 45% kcal fat) to obtain approximately 50% overweight compared to age-matched lean control mice. The DIO mice are characterized by normoglycemia, insulin resistance and obesity. […] The co-agonists, i.e. the glucagon derivatives, were dissolved in 50 mM Na2HPO4, 145 mM NaCl og 0.05% Tween 80, pH 7.4, while liraglutide was diluted from 6 mg/ml VictozaTM pens in DPBS buffer (Invitrogen) containing 0.5% rat serum albumin. Vehicle treated animals received 50 mM Na2HPO4, 145 mM NaCl og 0.05% Tween 80, pH 7.4. Compounds and vehicle were dosed (1 ml/kg) for 5 weeks s.c. once daily just prior to lights out. For the first half of the study co-agonists were administered at a dose of 5 nmol/kg and for the second half of the study co-agonists were administered at a dose of 10 nmol/kg. For comparison, liraglutide at a dose of 100 nmol/kg, likewise dosed s.c. once daily, was included. Body weight was monitored before dosing, daily during the dosing period. Non-fasted blood glucose was measured on the day of initiation of dosing and weekly during the dosing period, prior to dosing. Blood for measurement of blood glucose was taken from the tail tip capillary and blood glucose was measured using a glucose analyzer (Biosen 5040) based on the glucose oxidase method. The body weight reduction/body weight at the end of the 5 week treatment period and area under the blood glucose curve during the five week treatment period are given in the tables below.

CC(C)C[C@H](NC(=O)[C@H](CC(C)C)NC(=O)[C@H](Cc1c[nH]c2ccccc12)NC(=O)[C@H](CCC(N)=O)NC(=O)[C@@H](NC(=O)[C@H](Cc1ccccc1)NC(=O)[C@H](CCC(=O)O)NC(=O)[C@H](CCC(N)=O)NC(=O)[C@H](C)NC(=O)[C@H](C)NC(=O)[C@H](CCCCN)NC(=O)[C@H](CO)NC(=O)[C@H](CC(=O)O)NC(=O)[C@H](CC(C)C)NC(=O)[C@H](Cc1ccc(O)cc1)NC(=O)[C@H](CCCCN)NC(=O)[C@H](CO)NC(=O)[C@H](CC(C)C)NC(=O)[C@H](CC(=O)O)NC(=O)[C@H](CO)NC(=O)[C@@H](NC(=O)[C@H](Cc1ccccc1)NC(=O)[C@@H](NC(=O)CNC(=O)[C@H](CCC(N)=O)NC(=O)C(C)(C)NC(=O)[C@@H](N)Cc1c[nH]cn1)[C@@H](C)O)[C@@H](C)O)C(C)C)C(=O)N[C@@H](CC(N)=O)C(=O)N[C@@H](CCCCNC(=O)CC[C@H](NC(=O)CC[C@H](NC(=O)COCCOCCNC(=O)COCCOCCNC(=O)CC[C@H](NC(=O)CCCCCCCCCCCCCCCCC(=O)O)C(=O)O)C(=O)O)C(=O)O)C(N)=O [Example 8, N^ε29-[(4S)-4-carboxy-4-[[(4S)-4-carboxy-4-[[2-[2-[2-[[2-[2-[2-[[(4S)-4-carboxy-4-(17-carboxyheptadecanoylamino)butanoyl]amino]ethoxy]ethoxy]acetyl]amino]ethoxy]ethoxy]acetyl]amino]butanoyl]amino]butanoyl]-[Aib2,Leu10,Lys17,Ala18,Glu21,Leu27,Lys29]-Glucagon amide] (H-H[Aib]QGTFTSDLSKYLDSKAAQEFVQWLLNK([γGlu-γGlu-AEEA-AEEA-γGlu-C18 diacid])-NH2; N-terminus assumed)
Percent BW of baseline at week 5 (mean ± SD): 88% ± 8%

CC(C)C[C@H](NC(=O)[C@H](CC(C)C)NC(=O)[C@H](Cc1c[nH]c2ccccc12)NC(=O)[C@H](CCC(N)=O)NC(=O)[C@@H](NC(=O)[C@H](Cc1ccccc1)NC(=O)[C@H](CCC(=O)O)NC(=O)[C@H](CCCNC(=N)N)NC(=O)[C@H](C)NC(=O)[C@H](CCCNC(=N)N)NC(=O)[C@H](CCCNC(=N)N)NC(=O)[C@H](CO)NC(=O)[C@H](CC(=O)O)NC(=O)[C@H](CC(C)C)NC(=O)[C@H](Cc1ccc(O)cc1)NC(=O)[C@H](CCCCN)NC(=O)[C@H](CO)NC(=O)[C@H](CC(C)C)NC(=O)[C@H](CC(=O)O)NC(=O)[C@H](CO)NC(=O)[C@@H](NC(=O)[C@H](Cc1ccccc1)NC(=O)[C@@H](NC(=O)CNC(=O)[C@H](CCC(N)=O)NC(=O)C(C)(C)NC(=O)[C@@H](N)Cc1c[nH]cn1)[C@@H](C)O)[C@@H](C)O)C(C)C)C(=O)N[C@@H](CC(N)=O)C(=O)N[C@@H](CCCCNC(=O)CC[C@H](NC(=O)CC[C@H](NC(=O)COCCOCCNC(=O)COCCOCCNC(=O)CC[C@H](NC(=O)CCCCCCCCCCCCCCCCC(=O)O)C(=O)O)C(=O)O)C(=O)O)C(N)=O [Example 12, N^ε29-[(4S)-4-carboxy-4-[[(4S)-4-carboxy-4-[[2-[2-[2-[[2-[2-[2-[[(4S)-4-carboxy-4-(17-carboxyheptadecanoylamino)butanoyl]amino]ethoxy]ethoxy]acetyl]amino]ethoxy]ethoxy]acetyl]amino]butanoyl]amino]butanoyl]-[Aib2,Leu10,Arg20,Glu21,Leu27,Lys29]-Glucagon amide] (H-H[Aib]QGTFTSDLSKYLDSRRAREFVQWLLNK([γGlu-γGlu-AEEA-AEEA-γGlu-C18 diacid])-NH2)
lowering of body weight in vivo (5 weeks s.c. once daily): tends to be superior to liraglutide alone | Percent BW of baseline at week 5 (mean ± SD): 75% ± 8%
